Data set [1] has as its system New Zealand white rabbits. In words: rabbit glaucoma filtration surgery model of scar tissue formation, clinical end-points. Format: in vivo. The settings on record: for increase in IOP survival: 100 μM subconjunctival, IOP remains below baseline; for increase in long-term success of surgery (bleb survival) compared to vehicle control: 100 μl of 100 μM subconjunctival, day 30; for mean day of bleb failure: CCG compounds 100 μM subconjunctival, MMC 0.2 mg/ml intraoperative, vehicle 14 days; for intraocular pressure (IOP): versus vehicle control or baseline. From the text:
24 female New Zealand white rabbits (2–2.4 kg, 12—14 weeks, Highgate, UK) underwent experimental glaucoma filtration surgery to the left eye under general anaesthesia, [28]. A superonasal fornix-based conjunctival flap was raised behind the limbus and a micro-vitreoretinal blade (20 gauge, 0.90 mm, Surgistar USA) was used to make a partial thickness scleral tunnel to the corneal stroma. A 22 gauge, 25 mm intravenous cannula was passed through the tunnel and the needle was removed once it was visible in the cornea. The cannula was advanced into the mid-pupillary area, trimmed at its scleral edge and fixed to the scleral surface using a 10–0 nylon suture (Alcon, USA). The conjunctival incision was closed using two interrupted 10–0 nylon sutures. In a randomised, prospective, single-masked observer study, the rabbits received either intraoperative 0.2 mg/ml mitomycin-C (MMC) [N = 6], or postoperative subconjunctival injections (100 μl) of 100 μM CCG-203971 [N = 6] or 100 μM CCG-222740 [N = 6] or vehicle control [N = 6] daily for the first nine days followed by twice weekly for three weeks, [33]. CCG-222740 and CCG-203971 were dissolved in 100% DMSO (Sigma, UK) at 10 mM and then diluted to 100 μM with sterile PBS. The same volume of DMSO was diluted with PBS for the vehicle control. For the MMC-treated group, a small corneal light shield sponge was soaked in 1 ml of 0.2 mg/ml MMC and applied over the conjunctiva for 3 minutes, and the area was then thoroughly washed with 50 ml of physiologic balanced salt solution (Alcon Laboratories, Inc., Fort Worth, TX). All the postoperative subconjunctival injections were given at the same site by a single-masked researcher.
(§1) The animals were evaluated twice weekly by a single-masked researcher. Bleb width and length were measured using calipers and intraocular pressures (IOP) were measured using a tonovet (Icare). The primary efficacy end-point was bleb survival as this is indicative of the long-term opening of the filtration pathway created during surgery. Bleb failure was defined as the appearance of a flat, scarred, and vascularised bleb associated with a deep anterior chamber. IOP survival, defined as when the intraocular pressure remains below the baseline IOP measurement, and bleb area were used as secondary end-points. Conjunctival vascularity was graded on a scale of 0 to 3 (0: avascular, 1: normal, 2: hyperaemic, 3: very hyperaemic).

The subject of data set [2] is αSMA-positive human conjunctival fibroblasts. The data set is described as follows: alpha smooth muscle actin staining. Format: cell-based. As to conditions: 48 hours, control 24.5%. As to the method: Human conjunctival fibroblasts were plated on 20 mm glass coverslips at 1 × 10^5 cells/well in 6-well plates (Falcon, Fisher Scientific). The next day, the fibroblasts were treated for 48 hours with 10 or 25 μM of CCG-222740 or CCG-203971 or 0.1% DMSO control in DMEM +10% FCS. The samples were fixed in 4% paraformaldehyde for 10 minutes, washed three times in PBS, and permeabilised in PBS 0.2% TX-100 (Triton X-100, Sigma) for 20 minutes. The samples were blocked with 5% fetal calf serum/5% bovine serum albumin (Sigma) for 1 hour. The samples were incubated overnight with the Cy3-labelled alpha smooth muscle actin antibody (1:1000, Sigma) in a wet chamber at 4 °C in the dark. The next day, the samples were washed twice in PBS 0.1% TX-100 and incubated with phalloidin (1:200) and DAPI (1:2000) for 1 hour at room temperature. The samples were then mounted on slides and imaged using an Upright780 Zeiss LSM confocal microscope. The proportion of fibroblasts with prominent αSMA-positive stress fibres was quantified visually from three random fields of view per treatment group in 3 independent experiments.

For data set [3], the system named is SRF reporter gene. The data set is described as follows: SRF reporter gene assay in transfected cells. The settings on record: human and rabbit conjunctival fibroblasts (3DA.Luc), HEK293 (SRE.L luc), 24 hours. It counts as cell-based. As to the method: Human or rabbit conjunctival fibroblasts were plated at 2 × 10^4 cells/well in 24-well plates (Falcon, Fisher Scientific) for transient transfection. Conjunctival fibroblasts in each well were co-transfected using 2.5 μl Lipofectamine LTX and 0.5 μl Plus reagent (Invitrogen) with 8 ng of SRF reporter plasmid 3DA.Luc, 20 ng of pTK-Renilla-Luc and 172 ng of pEF in OptiMEM (Gibco)[58]. After 2 hours of transfection, fibroblasts were allowed to recover in DMEM +10% FCS overnight.
HEK293T cells were plated at 2 × 10^4 cells/well in 96-well plates (Falcon, Fisher Scientific) and co-transfected using Lipofectamine 2000 (Invitrogen) with 4 ng of SRF reporter plasmid SRE.L. luciferase, and 2 ng of either Gα12Q231L or pcDNA3.1/Zeo(−) diluted in Opti-MEM (Gibco). After 5 hours of transfection, cells were allowed to recover in DMEM +10% FCS overnight.
The next day, the cells were serum starved in DMEM +0.3% FCS and 5, 25, 50, or 100 μM of CCG-222740 or CCG-203971 or 0.1% DMSO control for 24 hours. The cells were then lysed and luciferase levels were measured using a Luciferase Assay System (Promega), according to the manufacturer’s instructions. Each experiment was carried out in triplicates for each condition and the experiment was repeated three times.
(A reporter such as luciferase makes a cellular process visible.)

Data set [4] deals with New Zealand white rabbits. The data set is described as follows: local and systemic toxicity after glaucoma filtration surgery. The settings on record: rabbit; for Ki67 positive cells in the conjunctival epithelium: day 30; for corneal or conjunctival toxicities, anterior chamber inflammation / local toxicity, conjunctival epithelium: local delivery; for systemic toxicity: local delivery to the conjunctiva. Format: in vivo. How it is done:
as §1
For the Ki67 staining, the sections were dewaxed, rehydrated, and microwaved for 15 minutes in sodium citrate buffer (pH 6) for antigen retrieval. After incubating in 1.6% hydrogen peroxide followed by 10% normal horse serum, the sections were incubated in mouse anti-Ki67 (M7248, Dako) diluted 1 in 25 in 1% BSA/PBS for 1 hour at room temperature. The sections were then incubated in biotinylated horse anti-mouse IgG (Vector) and Avidin-Biotin complex (Vector), developed in DAB (Vector), and counterstained in haematoxylin.
All animals were carefully evaluated for any signs of ocular or systemic toxicity during the study. At day 30, 100 µl of aqueous, 1 ml of vitreous, and 1 ml of venous blood were sampled on the rabbit eyes receiving CCG-222740 or CCG-203971 or vehicle control. The venous blood samples were left to clot for 30 minutes at room temperature, spun at 4000 rpm for 15 minutes at 4 °C, and the serum was collected as the supernatant. Samples were extracted in acetonitrile and the levels of CCG-222740 and CCG-203971 were measured in the aqueous, vitreous, and serum using liquid chromatography/mass spectrometry (LC/MS) in the Metabolomics Core at Michigan State University (East Lansing, MI).

As for `O=C(Nc1ccc(Cl)cc1)C1CCCN(C(=O)c2cccc(-c3ccco3)c2)C1` (centres unmarked) [CCG-203971], in data set [1], the “bleb area compared to vehicle control” value is recorded as “no statistically significant differences”, the “increase in IOP survival” value is 33%, the “increase in long-term success of surgery (bleb survival) compared to vehicle control” value was determined as 33% and the “mean day of bleb failure” value amounted to 22.5 days. Moreover, the “intraocular pressure (IOP)” value in data set [1] is recorded as “remained consistently lower than baseline measurements”. The “percentage of αSMA-positive fibroblasts” value in data set [2] (10 μM) turned out to be 17.0%. For the same compound, the “percentage of αSMA-positive fibroblasts” value in data set [2] (25 μM) stood at 8.6%. In data set [3], the “inhibition of baseline SRF reporter activity” value is given as roughly 100%. In addition, in data set [4], the conjunctival vascularity entry is listed as “no abnormalities in conjunctival vascularity”; the “Ki67 positive cells in the conjunctival epithelium” value is on record as “normal Ki67 positive cells”; the “corneal or conjunctival toxicities, anterior chamber inflammation” value is listed as “no signs of corneal or conjunctival toxicities or anterior chamber inflammation”; the “local toxicity, conjunctival epithelium” value is recorded as “did not cause any detectable local toxicity”. Also, the systemic toxicity entry in data set [4] is reported as “none of them showed any signs of systemic toxicity”.
As for `O=C(Nc1ccc(Cl)cc1)C1CN(C(=O)c2cccc(-c3ccco3)c2)CC(F)(F)C1` (centres unmarked) [CCG-222740], in data set [1], the “bleb area compared to vehicle control” value is on record as “significantly larger bleb area”, the “increase in IOP survival” value was determined as 67%, the “increase in long-term success of surgery (bleb survival) compared to vehicle control” value is given as 67% and the “mean day of bleb failure” value was 28.5 days. Further, the “intraocular pressure (IOP)” value in data set [1] is “remained consistently lower than baseline measurements”. Also, the “percentage of αSMA-positive fibroblasts” value in data set [2] (10 μM) was found to be 9.0%. In data set [2] (25 μM), the “percentage of αSMA-positive fibroblasts” value came out at 2.2%. Besides, in data set [3], the “inhibition of baseline SRF reporter activity” value is roughly 100%. For the same compound, in data set [4], the conjunctival vascularity entry is listed as “no abnormalities in conjunctival vascularity”; the “Ki67 positive cells in the conjunctival epithelium” value is on record as “normal Ki67 positive cells”; the “corneal or conjunctival toxicities, anterior chamber inflammation” value is recorded as “no signs of corneal or conjunctival toxicities or anterior chamber inflammation”; the “local toxicity, conjunctival epithelium” value is “did not cause any detectable local toxicity”. In data set [4], the systemic toxicity result is “none of them showed any signs of systemic toxicity”.

Source of the values: article PMC5428058, “Local delivery of novel MRTF/SRF inhibitors prevents scar tissue formation in a preclinical model of fibrosis” (Scientific Reports, 2017).
